From article PMC8371902, “Phase 1 study of M2698, a p70S6K/AKT dual inhibitor, in patients with advanced cancer” (Journal of Hematology & Oncology, 2021)
Read-outs that look alike come from different tables or passages of the source.

Test system: patients with advanced metastatic cancer
Excerpt: In this phase 1 study, dose escalation was followed by expansion cohorts of once-daily, oral M2698 in continuous 21-day cycles. Primary objectives were to determine the maximum tolerated dose (MTD), dose-limiting toxicities (DLTs), and recommended phase 2 dose (RP2D). Secondary objectives were to assess safety and tolerability, pharmacokinetics (PK, including food effect) and antitumor activity. Pharmacodynamic biomarker assessments were exploratory. Treatment was discontinued if there was disease progression, toxicity or consent withdrawal.
In Part 1, M2698 monotherapy was investigated in a dose escalation with a food effect cohort. In Part 2, M2698 was investigated as monotherapy (expansion cohort) to further characterize safety, tolerability and pharmacokinetics, and assess antitumor activity in PAM + patients without confounding markers (exploratory).
Dose escalation analysis included all patients who experienced a DLT and those who received ≥ 80% of planned M2698 doses in cycle 1 without experiencing a DLT. Safety analysis included all patients who received ≥ 1 dose of M2698. PK analysis included all patients who received ≥ 1 dose of M2698 and had measurable plasma concentrations. Dose proportionality was tested using the power model (linear regression approach on the log -transformed scale).

NC(=O)c1cccc2c(N[C@H](CN3CCC3)c3ccc(Cl)c(C(F)(F)F)c3)ncnc12 [M2698]
34 (54.8) n (%): M2698-related TEAE: Subjects with at least one event (Overall N=62)
2 (3.2) n (%): M2698-related TEAE: Anaemia (Overall N=62) | M2698-related TEAE: Blood creatine phosphokinase increased (Overall N=62) | M2698-related TEAE: Blood creatinine increased (Overall N=62) | M2698-related TEAE: Decreased appetite (Overall N=62) | M2698-related TEAE: Depression (Overall N=62) | M2698-related TEAE: Dysgeusia (Overall N=62) | M2698-related TEAE: Eye disorders (Overall N=62) | M2698-related TEAE: Gamma-glutamyltransferase increased (Overall N=62) | M2698-related TEAE: Hypokalaemia (Overall N=62) | M2698-related TEAE: Insomnia (Overall N=62) | M2698-related TEAE: Rash maculo-papular (Overall N=62)
4 (6.5) n (%): M2698-related TEAE: Fatigue (Overall N=62) | M2698-related TEAE: Metabolism and nutrition disorders (Overall N=62) | M2698-related TEAE: Tremor (Overall N=62)
0: M2698-related TEAE: Dysphagia (380 mg n=4) | M2698-related TEAE: Energy increased (380 mg n=4) | M2698-related TEAE: Erythema (380 mg n=4) | M2698-related TEAE: Euphoric mood (380 mg n=4) | M2698-related TEAE: Eye disorders (380 mg n=4) | M2698-related TEAE: Fatigue (380 mg n=4) | M2698-related TEAE: Gamma-glutamyltransferase increased (380 mg n=4) | M2698-related TEAE: Gastrooesophageal reflux disease (380 mg n=4) | M2698-related TEAE: General disorders and administration site conditions (380 mg n=4) | M2698-related TEAE: Headache (380 mg n=4) | M2698-related TEAE: Hyperhidrosis (380 mg n=4) | M2698-related TEAE: Hypokalaemia (380 mg n=4) | M2698-related TEAE: Hypomagnesaemia (380 mg n=4) | M2698-related TEAE: Insomnia (380 mg n=4) | M2698-related TEAE: Lipase increased (380 mg n=4) | M2698-related TEAE: Lymphopenia (380 mg n=4) | M2698-related TEAE: Metabolism and nutrition disorders (380 mg n=4) | M2698-related TEAE: Mucosal inflammation (380 mg n=4) | M2698-related TEAE: Nightmare (380 mg n=4) | M2698-related TEAE: Onychomadesis (380 mg n=4) | M2698-related TEAE: Paranoia (380 mg n=4) | M2698-related TEAE: Photosensitivity reaction (380 mg n=4) | M2698-related TEAE: Pruritus generalised (380 mg n=4) | M2698-related TEAE: Psychiatric disorders (380 mg n=4) | M2698-related TEAE: Rash (380 mg n=4) | M2698-related TEAE: Rash maculo-papular (380 mg n=4) | M2698-related TEAE: Skin and subcutaneous tissue disorders (380 mg n=4) | M2698-related TEAE: Transaminases increased (380 mg n=4) | M2698-related TEAE: Tremor (380 mg n=4) | M2698-related TEAE: Vision blurred (380 mg n=4) | M2698-related TEAE: White blood cell count decreased (380 mg n=4)
9 (14.5) n (%): M2698-related TEAE: Investigations (Overall N=62)
1 (1.6) n (%): M2698-related TEAE: Affect lability (Overall N=62) | M2698-related TEAE: Alanine aminotransferase increased (Overall N=62) | M2698-related TEAE: Amylase increased (Overall N=62) | M2698-related TEAE: Angina pectoris (Overall N=62) | M2698-related TEAE: Anxiety (Overall N=62) | M2698-related TEAE: Aphasia (Overall N=62) | M2698-related TEAE: Ataxia (Overall N=62) | M2698-related TEAE: Cardiac disorders (Overall N=62) | M2698-related TEAE: Cognitive disorder (Overall N=62) | M2698-related TEAE: Delusion (Overall N=62) | M2698-related TEAE: Diarrhoea haemorrhagic (Overall N=62) | M2698-related TEAE: Dizziness (Overall N=62) | M2698-related TEAE: Dry eye (Overall N=62) | M2698-related TEAE: Dry mouth (Overall N=62) | M2698-related TEAE: Dyspepsia (Overall N=62) | M2698-related TEAE: Dysphagia (Overall N=62) | M2698-related TEAE: Energy increased (Overall N=62) | M2698-related TEAE: Erythema (Overall N=62) | M2698-related TEAE: Euphoric mood (Overall N=62) | M2698-related TEAE: Gastrooesophageal reflux disease (Overall N=62) | M2698-related TEAE: Headache (Overall N=62) | M2698-related TEAE: Hyperhidrosis (Overall N=62) | M2698-related TEAE: Hypomagnesaemia (Overall N=62) | M2698-related TEAE: Lipase increased (Overall N=62) | M2698-related TEAE: Lymphopenia (Overall N=62) | M2698-related TEAE: Mucosal inflammation (Overall N=62) | M2698-related TEAE: Nightmare (Overall N=62) | M2698-related TEAE: Onychomadesis (Overall N=62) | M2698-related TEAE: Paranoia (Overall N=62) | M2698-related TEAE: Photosensitivity reaction (Overall N=62) | M2698-related TEAE: Posterior reversible encephalopathy syndrome (Overall N=62) | M2698-related TEAE: Pruritus generalised (Overall N=62) | M2698-related TEAE: Rash (Overall N=62) | M2698-related TEAE: Transaminases increased (Overall N=62) | M2698-related TEAE: Vision blurred (Overall N=62)
18 (29.0) n (%): M2698-related TEAE: Gastrointestinal disorders (Overall N=62)
3: M2698-related TEAE: Subjects with at least one event (380 mg n=4)
12 (19.4) n (%): M2698-related TEAE: Nausea (Overall N=62)
2: M2698-related TEAE: Gastrointestinal disorders (380 mg n=4)
3 (4.8) n (%): M2698-related TEAE: Blood and lymphatic system disorders (Overall N=62) | M2698-related TEAE: Constipation (Overall N=62)
1: M2698-related TEAE: Investigations (380 mg n=4) | M2698-related TEAE: Nausea (380 mg n=4) | M2698-related TEAE: Nervous system disorders (380 mg n=4) | M2698-related TEAE: Posterior reversible encephalopathy syndrome (380 mg n=4) | M2698-related TEAE: Vomiting (380 mg n=4)
6 (9.7) n (%): M2698-related TEAE: Abnormal dreams (Overall N=62) | M2698-related TEAE: General disorders and administration site conditions (Overall N=62)
10 (16.1) n (%): M2698-related TEAE: Nervous system disorders (Overall N=62) | M2698-related TEAE: Psychiatric disorders (Overall N=62)
8 (12.9) n (%): M2698-related TEAE: Skin and subcutaneous tissue disorders (Overall N=62)
7 (11.3) n (%): M2698-related TEAE: Diarrhoea (Overall N=62)
